Entries after “also recorded” stand apart in the source; their conditions may differ. Where two headings read alike, the source gives them in different places. Marks after values point to notes of the source that are not given here. Positions of bridges follow the written chain, without caps; N, C: chain ends. Residues, ends and D or L forms follow the SMILES beside them. No end group written: not given here.
Legend:
[1] = test system: melanoma cell line SBcl-2; test: PI-uptake assay, SBcl-2; type: cell-based, human; settings: 8 h; for IC50: PI-uptake
Protocol: (§1) Epidermis was separated. […] The pellet was resuspended in melanocyte growth media (Biomedica). […] All cell cultures were periodically checked for mycoplasma.
Cells were incubated in media containing serum for 8 h in the presence of peptides. Peptide concentrations were varied from 10 to 80 μM.

[2] = test system: melanoma metastasis WM164; test: PI-uptake assay, WM164; type: cell-based, human; settings: 20 μM peptide
Protocol: as §1
(§2) Cells were incubated in media containing serum for 8 h in the presence of peptides. Peptide concentrations were varied from 10 to 80 μM. FIG. 3 illustrates that the peptide moiety PEP-322 is only minor active against the melanoma cell line SBcl-2 with less than 5% killing at a peptide concentration of 80 μM, as well as against melanocytes with a moderate two-fold selectivity for WM164 cells at 20 μM peptide concentration (FIG. 3C).

[3] = test system: differentiated non-tumorigenic melanocytes; test: PI-uptake assay, melanocytes; type: cell-based, human; settings: 20 μM peptide, 8 h
Protocol: as §1, §2

[4] = test system: normal human dermal fibroblasts (NHDF); test: PI-uptake assay, NHDF; type: cell-based; settings: 8 h
Description: as §1

[5] = test system: cancer cells (SBcl-2, WM164, TE671); test: PI-uptake assay, cancer cells pooled; type: cell-based; settings: 20 μM peptide; for cytotoxic activity against cancer cells (killing): up to 8 h
Description: as §1

[6] = test system: tumor over non tumor cells; test: Specificity for tumor over non tumor cells (PI uptake studies); type: cell-based, human; settings: for Cancer Specificity, -fold specificity for melanoma over non tumor skin cells: melanoma (SBcl2 or A375) over melanocytes or NHDF-c, 8 hours, PI uptake
Description: as §1

[7] = test system: melanoma cell line SBcl-2; test: MTS cell proliferation assay, SBcl-2; settings: 24 h; for IC50: read-out: IC50 SBcl-2 (MTS), MTS cell viability assay
Protocol: as §1
(§3) Cell proliferation was measured by using a CellTiter 96 AQ nonradioactive cell proliferation assay (Promega). Cells were plated in 96-well plates and grown until confluence. Peptides were added to a final concentration of 5-100 μM. After incubation for 24 h at 37° C. (5% CO2) MTS [3-(4,5-dimethylthiazol-2yl)-5-(3-carboxymethoxyphenyl)-2-(4-sulfophenyl)-2H-tetrazolium]-phenozine methosulfate solution (20 μl/well) was added and cells were again incubated for 2 h at 37° C. (5% CO2). The MIS compound is bioreduced by cells into a colored formazan product that is soluble in tissue culture medium. The quantity of the formazan product as measured by the amount of 490 nm absorbance is directly proportional to the number of living cells in culture. Data are calculated as a percentage of the control (untreated) samples and represent the average of three wells in one experiment which was repeated three times per cell line.
(§4) To determine long-time toxicity of peptides, a MTS cell proliferation assay was used to elucidate cell viability upon 24 h incubation with variant peptide concentration and human melanoma cell lines SBcl-2 and WM164 and non-differentiated human skin fibroblast cell line NHDF.

[8] = test system: melanoma metastasis WM164; settings: for IC50: read-out: IC50 WM164 (MTS), 24 h
Protocol: as §1, §3, §4

[9] = test system: human skin fibroblast cell line NHDF; test: MTS cell proliferation assay, NHDF; settings: read-out: IC50 Fibroblasts / NHDF (MTS); MTS cell viability assay, 24 h
Protocol: as §1, §3, §4

human red blood cells [10] = test: Hemolysis; type: cell-based; settings: for % lysis of 2.5% RBCs: one hour, 37° C.; for hemolysis IC50: human red blood cells
Protocol: The hemolytic activity towards human red blood cells (RBCs), which were obtained from heparinized human blood, was determined by the release of hemoglobin following one hour incubation at 37° C. in MHNA (Mueller Hinton cation Non Adjusted). Percentage of hemolysis of RBCs was calculated using 1% Triton as 100% lysis and PBS as 0% lysis, peptide concentration was 500 μg/ml.

[11] = test system: caspase-3/7 activity of melanoma cell line SBcl-2; test: Spectrofluorimetric analysis of caspase-3/7 activity; type: cell-based, human; settings: SBcl-2, 10-20 μM peptide, 4 hours
Protocol: Spectrofluorimetric analysis of caspase-3/7 activity 5×10^5 cells/ml were seeded into 96-well plate and grown overnight at 37° C. and 5% CO2. Cells were incubated with different concentrations of peptide for 4 hours. Apo-ONE® caspase-3/7 reagent was added in a 1:1 volume ratio and cells were incubated for 4 hours. Cells were then analyzed by fluorescence spectroscopy (GloMax®-Multi+ Microplate Multimode Reader with Instinc™). Untreated cells were used as negative control. Analysis was performed with Apo-ONE® Homogeneous Caspase-3/7 Assay (see FIG. 7).

[12] = Tryptophan fluorescence and quenching, cancer mimic; settings: in presence of target lipid PS
Protocol: (§5) Tryptophan fluorescence spectra were obtained at room temperature using an excitation wavelength of 282 nm and a slit width of 5 nm for excitation and emission monochromators. Quenching of Tryptophan was carried out in the presence and absence of phospholipid liposomes (lipid to peptide ratio 25:1) using 0.1, 0.4 and 0.7 M acrylamide. The data were analyzed according to the Stern-Volmer equation: F0/F=1+KSV[Q] where F0 and F represent the fluorescence emission intensities in the absence and presence of the quencher molecule (Q) and KSV is the Stern-Volmer quenching constant, which is a quantitative measure for the accessibility of tryptophan to acrylamide (Tao, T. and Cho, J. Biochemistry 18(1979), 2759-2765).

[13] = Tryptophan fluorescence and quenching, healthy mimic; settings: in presence of PC
Protocol: as §5

A375 melanoma cell line = settings: 20 μM peptide, 8 h, PI-uptake
Description: as §1

[14] = test system: U87 mg glioblastoma cell line; settings: 20 μM peptide, 8 h, PI-uptake
Description: as §1

[15] = MTS cell proliferation assay, NHDF; settings: human, NHDF (normal human dermal fibroblasts)
Protocol: as §1, §3, §4

human red blood cells [16] = settings: 500 μg/ml peptide; from Zweytick et al., J. Biol. Chem. 286 (2011); cited from earlier work
[17] = test system: cancer cells (SBcl-2, WM164); settings: read-out: IC50 against cancer cells (MTS), 24 h, FIG. 6C
Protocol: as §1, §3, §4

[18] = test system: non-cancer cells (melanocytes, NHDF); test: PI-uptake assay, non-cancer cells pooled; settings: 20 μM peptide, up to 8 h
Protocol: The primary human melanoma cell line SBcl2 and the metastatic melanoma WM164 were maintained in RPMI (Sigma) supplemented with 2% FBS, 2% L-glutamine and 1% Pen/Strep. Glioblastoma (U87-mg) purchased from CLS (Cell Line Service Heidelberg, Germany) and Rhabdomyosarcoma cell lines (TE671) purchased from ECAAC (Health Protection Agency Culture Collections Salisbury, UK) are cultured in Dulbecco's Modified Eagle Medium (DMEM) with addition of 2 mM Glutamine, 10% FBS (fetal bovine serum). Melanoma cell line A375 CLS (Cell Line Service Heidelberg, Germany) was cultured in Dulbecco's Modified Eagle Medium (DMEM)(PAA) with addition of 2 mM Glutamine and 10% FBS (fetal bovine serum. Human melanocytes used as healthy control cells: were isolated from the foreskin). The foreskin was cut into small pieces and incubated with 0.3% trypsin (PAA) overnight at 4° C. and for one hour at 37° C. Epidermis was separated. Cells were mechanically removed from the cell layer and centrifuged at 300 g for 3 min. The pellet was resuspended in melanocyte growth media (Biomedica). Melanocytes were further cultured in human melanocytes growth medium (PromoCell GmbH). […]
For detection of PI-uptake by fluorescence spectroscopy experiments were performed according to the following protocol. […]
Cytotoxicity was calculated from the percentage of PI positive cells in media alone (P0) and in the presence of peptide (PX). […]

## PFWRIRIRRPRRIRIRWFP-NH2 [R-DIM-P-PEP-322, PFWRIRIRRPRRIRIRWFP-NH2]
[1]; 20 μM peptide
  PI positive SBcl-2 cells: more than 80%
[2]
  sensitivity of WM164 for the peptide: highly sensitive
[3]
  melanocytes killed: less than 1%
[4]
  IC50: > 80 µM
[5]
  time to highest activity against cancer cells: 4 to 8 h
  cytotoxic activity against cancer cells (killing): up to 80%
[6]
  activity and selectivity for cancer cells (in words): cancer active and specific; also recorded: selective for cancer cells
[6]; 20 μM peptide, 8 h
  specificity for cancer cells (PI-uptake ratio SBcl-2 vs. melanocytes): more than 100 fold
[6]; 20 μM peptide
  Cancer Specificity, -fold specificity for melanoma over non tumor skin cells: (R-DIM-), >100fold)
[7]
  IC50: 8 µM
[8]
  IC50: 15 µM
[9]
  IC50: 80 µM
Human red blood cells [10]; 500 μg/ml peptide
  % lysis of 2.5% RBCs: 0.84 ± 0.63%
Human red blood cells [10]
  hemolysis IC50: >500 µg/mL
[11]
  increase of green fluorescence (caspase-3/7 activity): 200 fold
[12]
  blue shift of Trp emission wavelength, PS: blue shift is only detected in presence of the target lipid PS
[13]
  blue shift of Trp emission wavelength, PC: no blue shift appears

## PFWRIRIRRD DRRIRIRWFP (PFWRIRIRRDDRRIRIRWFP) [R-DIM-PEP-323]
[6]
  activity and selectivity for cancer cells (in words): selective for cancer cells

## PFWRRRIRIRR RRIRIRRRWFP (PFWRRRIRIRRRRIRIRRRWFP) [R-DIM-PEP-337]
[6]
  activity and selectivity for cancer cells (in words): less specific
[6]; 20 μM peptide
  Cancer Specificity, -fold specificity for melanoma over non tumor skin cells: (2fold) (R-DIM-)

## PFWRIRIRR RRIRIRWFP (PFWRIRIRRRRIRIRWFP) [R-DIM-PEP-322]
[5]
  time to highest activity against cancer cells: ≥ 8 h
[6]
  activity and selectivity for cancer cells (in words): selective for cancer cells
[6]; 20 μM peptide
  Cancer Specificity, -fold specificity for melanoma over non tumor skin cells: (DIM-), 20fold

## CC[C@H](C)[C@H](NC(=O)[C@@H]1CSSC[C@H](NC(=O)[C@H](CCCCN)NC(=O)[C@@H](N)[C@@H](C)O)C(=O)N[C@@H](Cc2ccccc2)C(=O)N[C@@H](CCC(N)=O)C(=O)N[C@@H](Cc2c[nH]c3ccccc23)C(=O)N[C@@H](CCC(N)=O)C(=O)N[C@@H](CCCNC(=N)N)C(=O)N[C@@H](CC(N)=O)C(=O)N[C@@H](CCSC)C(=O)N[C@@H](CCCNC(=N)N)C(=O)N[C@@H](CCCCN)C(=O)N[C@@H](C(C)C)C(=O)N[C@@H](CCCNC(=N)N)C(=O)NCC(=O)N2CCC[C@H]2C(=O)N2CCC[C@H]2C(=O)N[C@@H](C(C)C)C(=O)N[C@@H](CO)C(=O)N1)C(=O)N[C@@H](CCCCN)C(=O)N[C@@H](CCCNC(=N)N)C(=O)N[C@@H](CC(=O)O)C(=O)N[C@@H](CO)C(=O)O [hLFcin (37-61)] (H-TKCFQWQRNMRKVRGPPVSCIKRDS-OH; disulfide 3-20)
[4]
  toxicity against normal human dermal fibroblasts NHDF-c: no toxicity
A375 melanoma cell line
  cytotoxicity against melanoma cell line A375: only weak activity
[14]
  cytotoxicity against glioblastoma cell line U87 mg: only weak activity

## PFWRIRIRR-NH2 [PEP-322, PFWRIRIRR-NH2]
[1]
  IC50: > 80 µM
[4]
  IC50: > 80 µM
[7]; 100 μM peptide, MTS
  cell viability SBcl-2: 40%
[7]
  IC50: 90 µM
[8]; 100 μM peptide, 24 h, MTS
  cell viability WM164: more than 70%
[8]
  IC50: > 100 µM
[15]
  viability at 24 h, 100 μM: > 70%
[9]
  IC50: > 100 µM
Human red blood cells [16]
  % lysis of 2.5% RBCs: 2^b %

## PFFWRIRIRRPFFWRIRIRR-NH2 [DIM-PEP-324]
[6]
  activity and selectivity for cancer cells (in words): selective for cancer cells
[6]; 20 μM peptide
  Cancer Specificity, -fold specificity for melanoma over non tumor skin cells: yes (7fold) (DIM-),

## PFWRIRIRR PFWRIRIRR (PFWRIRIRRPFWRIRIRR) [DIM-PEP-322]
[6]
  activity and selectivity for cancer cells (in words): selective for cancer cells
[6]; 20 μM peptide
  Cancer Specificity, -fold specificity for melanoma over non tumor skin cells: yes (50fold)

## FWQRRIRRWRRFWQRRIRRWRR-NH2 [DIM-PEP-318]
[1]
  IC50: < 20 µM
[4]
  IC50: < 20 µM
[5]
  cytotoxic activity against cancer cells (killing): up to 90%
[17]
  IC50: < 10 µM
[9]
  IC50: 10 µM
Human red blood cells [10]; 500 μg/ml peptide, 2.5% red blood cells
  hemolytic activity (in words): not hemolytic
Human red blood cells [10]; 500 μg/ml peptide
  % lysis of 2.5% RBCs: 2.87 ± 0.57%
Human red blood cells [10]
  hemolysis IC50: >500 µg/mL
[18]
  non-cancer toxicity (melanocytes, NHDF): highly active

## RWKRINRQWFFWQRNIRKWR-NH2 [R-DIM-PEP-316]
[6]
  activity and selectivity for cancer cells (in words): specific; also recorded: selective for cancer cells
[6]; 20 μM peptide
  Cancer Specificity, -fold specificity for melanoma over non tumor skin cells: Yes (15fold) (R-DIM-)
